The record followed here is ChEMBL document CHEMBL3102702, “Protein kinase and HDAC inhibitors from the endophytic fungus Epicoccum nigrum” (J Nat Prod, 2014).

Test [1] deals with RAC-alpha serine/threonine-protein kinase (Homo sapiens, UniProt P31749). Kind of test: Inhibition of AKT1 (unknown origin).
Test [2] deals with Serine/threonine-protein kinase PLK1 (Homo sapiens, UniProt P53350). Kind of test: Inhibition of PLK1 (unknown origin).
The target of test [3] is Serine/threonine-protein kinase Nek6 (Homo sapiens, UniProt Q9HC98). Kind of test: Inhibition of NEK6 (unknown origin).
In the next test the target is Focal adhesion kinase 1 (Homo sapiens, UniProt Q05397). Kind of test: Inhibition of FAK (unknown origin).
Test [4] deals with Vascular endothelial growth factor receptor 2 (Homo sapiens, UniProt P35968). In words: Inhibition of VEGFR2 (unknown origin).
Test [5] deals with T1, NUAK family SNF1-like kinase 1 (Homo sapiens, UniProt O60285).
T1 sequence (O60285 whole entry): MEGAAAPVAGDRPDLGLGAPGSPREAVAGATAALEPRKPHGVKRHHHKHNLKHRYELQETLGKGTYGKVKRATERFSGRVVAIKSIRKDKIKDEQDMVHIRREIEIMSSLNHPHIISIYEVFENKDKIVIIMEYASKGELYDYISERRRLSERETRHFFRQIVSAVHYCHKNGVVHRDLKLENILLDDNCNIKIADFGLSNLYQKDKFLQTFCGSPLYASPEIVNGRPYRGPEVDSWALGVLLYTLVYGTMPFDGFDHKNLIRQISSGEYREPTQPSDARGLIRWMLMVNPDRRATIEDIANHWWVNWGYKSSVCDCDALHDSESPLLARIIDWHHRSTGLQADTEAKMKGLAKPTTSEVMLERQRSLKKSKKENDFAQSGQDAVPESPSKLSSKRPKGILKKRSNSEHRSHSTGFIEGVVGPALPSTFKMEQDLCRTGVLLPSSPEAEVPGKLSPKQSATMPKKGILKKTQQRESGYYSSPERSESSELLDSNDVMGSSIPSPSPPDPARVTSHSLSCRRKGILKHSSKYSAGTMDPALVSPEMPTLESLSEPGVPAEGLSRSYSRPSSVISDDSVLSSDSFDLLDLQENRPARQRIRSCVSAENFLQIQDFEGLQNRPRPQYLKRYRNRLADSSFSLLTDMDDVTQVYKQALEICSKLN
In words: Inhibition of ARK5 (unknown origin).

In test [6] the target is Insulin-like growth factor 1 receptor (Homo sapiens, UniProt P08069). Kind of test: Inhibition of IGF1R (unknown origin).
The target in test [7] is T2, Serine/threonine-protein kinase Nek2 (Homo sapiens, UniProt P51955).
T2 sequence (P51955 whole entry): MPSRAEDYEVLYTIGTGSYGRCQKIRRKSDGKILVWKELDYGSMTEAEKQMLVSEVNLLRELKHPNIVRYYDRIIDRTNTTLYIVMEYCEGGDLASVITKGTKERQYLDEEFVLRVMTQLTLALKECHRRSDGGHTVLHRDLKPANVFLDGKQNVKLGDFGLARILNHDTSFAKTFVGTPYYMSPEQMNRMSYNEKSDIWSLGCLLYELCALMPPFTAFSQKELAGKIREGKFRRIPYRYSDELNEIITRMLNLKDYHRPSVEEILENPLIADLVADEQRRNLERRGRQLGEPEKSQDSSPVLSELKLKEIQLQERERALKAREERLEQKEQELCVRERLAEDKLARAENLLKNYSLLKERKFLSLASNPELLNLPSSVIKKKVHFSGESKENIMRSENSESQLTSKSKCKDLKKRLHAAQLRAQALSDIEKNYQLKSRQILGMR
Kind of test: Inhibition of NEK2 (unknown origin).

For test [8], the target named is T3, Tyrosine-protein kinase receptor UFO (Homo sapiens, UniProt P30530).
T3 sequence (P30530 whole entry): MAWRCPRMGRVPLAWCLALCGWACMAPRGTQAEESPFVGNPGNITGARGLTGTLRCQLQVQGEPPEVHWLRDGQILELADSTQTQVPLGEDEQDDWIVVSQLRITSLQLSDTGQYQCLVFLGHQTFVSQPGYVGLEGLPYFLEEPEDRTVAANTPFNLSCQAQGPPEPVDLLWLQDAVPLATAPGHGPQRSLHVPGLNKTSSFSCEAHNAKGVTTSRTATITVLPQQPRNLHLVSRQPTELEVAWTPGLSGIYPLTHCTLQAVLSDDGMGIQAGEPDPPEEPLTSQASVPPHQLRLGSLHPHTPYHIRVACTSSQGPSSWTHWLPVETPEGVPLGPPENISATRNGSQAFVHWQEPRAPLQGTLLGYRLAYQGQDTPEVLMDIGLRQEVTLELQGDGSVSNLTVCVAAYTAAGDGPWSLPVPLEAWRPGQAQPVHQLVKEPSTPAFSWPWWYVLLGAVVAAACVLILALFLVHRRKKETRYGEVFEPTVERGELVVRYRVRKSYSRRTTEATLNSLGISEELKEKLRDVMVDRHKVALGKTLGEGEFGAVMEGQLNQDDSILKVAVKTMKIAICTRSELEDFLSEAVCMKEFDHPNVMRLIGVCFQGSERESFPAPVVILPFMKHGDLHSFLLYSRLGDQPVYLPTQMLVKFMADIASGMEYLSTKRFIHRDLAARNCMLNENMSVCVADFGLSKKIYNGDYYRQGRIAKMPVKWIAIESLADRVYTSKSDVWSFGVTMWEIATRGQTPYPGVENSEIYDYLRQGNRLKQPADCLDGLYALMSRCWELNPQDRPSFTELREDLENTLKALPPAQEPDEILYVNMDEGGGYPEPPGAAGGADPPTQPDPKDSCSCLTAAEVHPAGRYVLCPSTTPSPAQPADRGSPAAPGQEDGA
Kind of test: Inhibition of AXL (unknown origin).

Test [9] addresses Dual specificity mitogen-activated protein kinase kinase 1 (Homo sapiens, UniProt Q02750). Kind of test: Inhibition of wild type MEK1 (unknown origin).
For test [10], the target named is Hepatocyte growth factor receptor (Homo sapiens, UniProt P08581). In words: Inhibition of wild type MET (unknown origin).
A further test addresses Aurora kinase B (Homo sapiens, UniProt Q96GD4). In words: Inhibition of aurora-B (unknown origin).
In test [11] the target is Serine/threonine-protein kinase N1 (Homo sapiens, UniProt Q16512). Kind of test: Inhibition of PRK1 (unknown origin).
In test [12] the target is Proto-oncogene tyrosine-protein kinase Src (Homo sapiens, UniProt P12931). In words: Inhibition of SRC (unknown origin).
The target of test [13] is ALK tyrosine kinase receptor (Homo sapiens, UniProt Q9UM73). In words: Inhibition of ALK (unknown origin).
Test [14] has as its target Serine/threonine-protein kinase pim-1 (Homo sapiens, UniProt P11309). In words: Inhibition of PIM1 (unknown origin).

A value given as a limit tells only on which side of the number the result lay.

Serine/threonine-protein kinase PLK1, sequence (P53350 whole entry): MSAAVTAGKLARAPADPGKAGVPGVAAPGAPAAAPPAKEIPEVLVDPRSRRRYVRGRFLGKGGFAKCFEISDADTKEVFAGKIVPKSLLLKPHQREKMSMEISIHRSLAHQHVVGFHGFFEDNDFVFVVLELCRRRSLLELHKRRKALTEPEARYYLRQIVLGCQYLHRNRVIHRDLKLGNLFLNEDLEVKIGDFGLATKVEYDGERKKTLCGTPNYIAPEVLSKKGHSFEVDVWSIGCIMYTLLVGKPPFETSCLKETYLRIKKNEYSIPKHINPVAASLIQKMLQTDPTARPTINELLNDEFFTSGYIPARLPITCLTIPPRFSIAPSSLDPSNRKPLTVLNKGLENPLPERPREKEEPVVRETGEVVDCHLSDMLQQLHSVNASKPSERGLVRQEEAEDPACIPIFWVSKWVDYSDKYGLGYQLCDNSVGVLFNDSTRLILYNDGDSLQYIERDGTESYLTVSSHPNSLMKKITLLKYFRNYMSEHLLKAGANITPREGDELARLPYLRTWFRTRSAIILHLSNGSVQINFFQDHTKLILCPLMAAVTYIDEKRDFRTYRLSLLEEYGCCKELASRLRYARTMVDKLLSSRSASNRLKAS
RAC-alpha serine/threonine-protein kinase, sequence (P31749 whole entry): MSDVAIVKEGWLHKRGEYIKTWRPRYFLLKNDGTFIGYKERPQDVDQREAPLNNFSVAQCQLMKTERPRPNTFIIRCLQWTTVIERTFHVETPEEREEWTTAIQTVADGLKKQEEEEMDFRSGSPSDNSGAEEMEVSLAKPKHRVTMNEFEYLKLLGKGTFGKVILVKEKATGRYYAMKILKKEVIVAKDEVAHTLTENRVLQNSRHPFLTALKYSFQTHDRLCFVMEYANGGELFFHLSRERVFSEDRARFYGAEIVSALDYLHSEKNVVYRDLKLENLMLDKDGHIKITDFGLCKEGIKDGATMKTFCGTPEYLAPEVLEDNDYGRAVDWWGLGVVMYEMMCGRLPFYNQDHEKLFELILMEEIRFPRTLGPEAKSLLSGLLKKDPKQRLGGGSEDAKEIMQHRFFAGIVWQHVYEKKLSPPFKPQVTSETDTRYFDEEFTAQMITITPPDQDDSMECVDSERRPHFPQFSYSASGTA
Serine/threonine-protein kinase N1, sequence (Q16512 whole entry): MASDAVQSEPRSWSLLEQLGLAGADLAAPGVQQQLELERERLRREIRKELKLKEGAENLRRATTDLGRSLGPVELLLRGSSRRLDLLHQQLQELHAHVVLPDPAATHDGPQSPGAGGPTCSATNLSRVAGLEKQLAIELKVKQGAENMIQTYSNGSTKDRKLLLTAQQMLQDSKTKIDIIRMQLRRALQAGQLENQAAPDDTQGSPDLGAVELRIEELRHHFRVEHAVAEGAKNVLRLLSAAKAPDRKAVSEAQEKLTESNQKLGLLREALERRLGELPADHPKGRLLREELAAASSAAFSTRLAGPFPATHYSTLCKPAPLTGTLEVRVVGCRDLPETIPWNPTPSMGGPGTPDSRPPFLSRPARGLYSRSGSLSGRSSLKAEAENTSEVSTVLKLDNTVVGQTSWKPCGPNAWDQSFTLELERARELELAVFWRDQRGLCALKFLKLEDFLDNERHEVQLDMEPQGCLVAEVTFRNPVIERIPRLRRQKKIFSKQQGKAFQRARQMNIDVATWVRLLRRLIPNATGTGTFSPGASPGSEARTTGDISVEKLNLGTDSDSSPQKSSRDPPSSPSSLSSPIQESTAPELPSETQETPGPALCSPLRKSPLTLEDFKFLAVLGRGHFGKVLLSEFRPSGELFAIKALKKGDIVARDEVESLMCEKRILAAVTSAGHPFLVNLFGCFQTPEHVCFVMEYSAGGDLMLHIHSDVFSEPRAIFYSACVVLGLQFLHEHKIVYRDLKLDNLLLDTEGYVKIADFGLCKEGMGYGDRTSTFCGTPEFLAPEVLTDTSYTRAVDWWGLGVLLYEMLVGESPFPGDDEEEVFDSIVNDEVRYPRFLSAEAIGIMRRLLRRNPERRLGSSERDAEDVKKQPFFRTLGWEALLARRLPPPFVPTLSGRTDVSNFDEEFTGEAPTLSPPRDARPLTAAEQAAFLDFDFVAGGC
ALK tyrosine kinase receptor, sequence (Q9UM73 whole entry): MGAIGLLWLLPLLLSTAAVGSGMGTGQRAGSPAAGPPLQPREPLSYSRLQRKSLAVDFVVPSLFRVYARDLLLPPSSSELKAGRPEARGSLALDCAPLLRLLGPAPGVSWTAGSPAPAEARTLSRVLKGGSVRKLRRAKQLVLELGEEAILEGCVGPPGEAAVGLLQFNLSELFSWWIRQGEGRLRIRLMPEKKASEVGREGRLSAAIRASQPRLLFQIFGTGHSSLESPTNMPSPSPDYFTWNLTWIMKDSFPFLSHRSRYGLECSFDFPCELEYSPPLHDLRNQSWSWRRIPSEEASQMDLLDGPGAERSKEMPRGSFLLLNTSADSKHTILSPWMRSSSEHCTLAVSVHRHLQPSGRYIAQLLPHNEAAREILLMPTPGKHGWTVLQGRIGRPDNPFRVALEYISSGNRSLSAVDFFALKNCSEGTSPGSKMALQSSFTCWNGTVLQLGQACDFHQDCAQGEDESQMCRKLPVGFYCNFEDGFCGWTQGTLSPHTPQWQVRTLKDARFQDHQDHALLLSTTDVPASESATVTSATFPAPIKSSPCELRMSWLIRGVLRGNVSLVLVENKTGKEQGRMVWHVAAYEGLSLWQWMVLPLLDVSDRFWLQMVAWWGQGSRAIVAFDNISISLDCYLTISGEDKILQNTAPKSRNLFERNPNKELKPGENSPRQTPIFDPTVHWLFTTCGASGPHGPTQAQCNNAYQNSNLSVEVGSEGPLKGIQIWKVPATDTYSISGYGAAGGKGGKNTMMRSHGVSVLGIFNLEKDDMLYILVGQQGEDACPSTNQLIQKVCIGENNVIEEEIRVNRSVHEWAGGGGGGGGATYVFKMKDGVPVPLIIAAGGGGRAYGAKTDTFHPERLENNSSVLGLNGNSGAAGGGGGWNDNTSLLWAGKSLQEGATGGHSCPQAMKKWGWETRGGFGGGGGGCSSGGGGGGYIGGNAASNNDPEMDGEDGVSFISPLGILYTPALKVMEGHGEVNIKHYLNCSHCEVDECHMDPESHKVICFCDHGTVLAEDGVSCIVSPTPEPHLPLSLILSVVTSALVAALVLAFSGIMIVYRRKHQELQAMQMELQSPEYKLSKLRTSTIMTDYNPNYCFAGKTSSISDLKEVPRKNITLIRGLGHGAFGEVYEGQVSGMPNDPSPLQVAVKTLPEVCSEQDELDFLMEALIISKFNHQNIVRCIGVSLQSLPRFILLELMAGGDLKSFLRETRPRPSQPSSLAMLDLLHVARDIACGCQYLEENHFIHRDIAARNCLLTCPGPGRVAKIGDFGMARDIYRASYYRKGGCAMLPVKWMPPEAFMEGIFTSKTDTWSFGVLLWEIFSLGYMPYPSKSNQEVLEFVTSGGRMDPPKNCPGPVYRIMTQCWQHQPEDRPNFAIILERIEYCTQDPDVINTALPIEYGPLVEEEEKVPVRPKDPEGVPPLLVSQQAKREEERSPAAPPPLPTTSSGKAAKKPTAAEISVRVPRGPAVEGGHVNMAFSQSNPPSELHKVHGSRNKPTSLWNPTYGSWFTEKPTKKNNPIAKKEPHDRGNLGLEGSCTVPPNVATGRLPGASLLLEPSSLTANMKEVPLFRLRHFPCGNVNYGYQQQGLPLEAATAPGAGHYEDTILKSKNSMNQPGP
Aurora kinase B, sequence (Q96GD4 whole entry): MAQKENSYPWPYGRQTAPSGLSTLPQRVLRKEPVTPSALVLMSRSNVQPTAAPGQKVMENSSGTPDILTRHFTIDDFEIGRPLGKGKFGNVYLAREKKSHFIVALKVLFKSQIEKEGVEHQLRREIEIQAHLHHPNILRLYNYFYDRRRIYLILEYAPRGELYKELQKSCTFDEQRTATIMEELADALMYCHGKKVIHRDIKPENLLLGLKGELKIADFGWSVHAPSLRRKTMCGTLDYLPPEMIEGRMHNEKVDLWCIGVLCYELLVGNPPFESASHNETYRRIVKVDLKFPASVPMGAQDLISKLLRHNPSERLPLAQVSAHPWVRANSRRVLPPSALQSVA
Serine/threonine-protein kinase Nek6, sequence (Q9HC98 whole entry): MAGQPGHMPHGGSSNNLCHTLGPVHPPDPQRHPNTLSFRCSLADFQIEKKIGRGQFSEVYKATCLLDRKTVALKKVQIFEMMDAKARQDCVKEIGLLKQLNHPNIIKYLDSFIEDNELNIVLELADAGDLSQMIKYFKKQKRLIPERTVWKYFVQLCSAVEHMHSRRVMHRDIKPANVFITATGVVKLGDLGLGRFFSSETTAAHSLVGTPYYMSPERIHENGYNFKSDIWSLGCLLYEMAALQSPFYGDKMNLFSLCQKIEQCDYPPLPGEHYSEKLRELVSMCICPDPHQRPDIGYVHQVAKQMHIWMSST
Proto-oncogene tyrosine-protein kinase Src, sequence (P12931 2-536 limits assumed): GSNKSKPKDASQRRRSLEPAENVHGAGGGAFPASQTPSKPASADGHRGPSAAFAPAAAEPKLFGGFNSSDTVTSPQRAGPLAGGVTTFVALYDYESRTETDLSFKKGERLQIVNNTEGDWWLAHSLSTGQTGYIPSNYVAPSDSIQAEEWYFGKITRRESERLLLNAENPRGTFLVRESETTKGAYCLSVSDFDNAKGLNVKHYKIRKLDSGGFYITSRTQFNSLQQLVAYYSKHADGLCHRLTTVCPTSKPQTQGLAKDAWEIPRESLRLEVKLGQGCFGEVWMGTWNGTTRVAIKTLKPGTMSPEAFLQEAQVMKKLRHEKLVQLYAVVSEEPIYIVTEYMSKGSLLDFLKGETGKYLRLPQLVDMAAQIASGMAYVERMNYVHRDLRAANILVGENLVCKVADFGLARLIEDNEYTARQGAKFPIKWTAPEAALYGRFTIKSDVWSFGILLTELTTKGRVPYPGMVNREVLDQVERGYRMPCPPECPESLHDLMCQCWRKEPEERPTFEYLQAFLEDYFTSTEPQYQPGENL

By IC50 is commonly meant the midpoint of a concentration-inhibition curve. Read a low IC50 as greater potency. Regarding `Cc1c(O)c(O)c(O)c2c1COC2=O`, the IC50 in [1] amounted to 23.2 µM; in test [2], 11.8 µM; in test [3], 13.6 µM; against Focal adhesion kinase 1 it was 7.52 µM; in test [4], 5.96 µM; in test [5], 10 µM. Further, the IC50 is 0.56 µM in test [6]; 6.55 µM in test [7]; 2.46 µM in test [8]; above 100 µM in [9]; 8.63 µM in test [10]; 8.69 µM against Aurora kinase B. The IC50 in [11] was found to be 18.6 µM; in [12] it was 3.56 µM; in [13] it was 5.02 µM; in test [14], 21.3 µM.

For `COCc1c(C)c(O)c(O)c(O)c1C=O`, the IC50 was above 30 µM in test [1]; above 30 µM in [2]; above 30 µM in [3]; 20.6 µM on Focal adhesion kinase 1; above 30 µM in test [4]; above 30 µM in [5]. For the same compound, the half-maximal inhibitory concentration (IC50) is 3.5 µM in test [6]; above 30 µM in test [7]; 11 µM in test [8]; above 30 µM in test [9]; above 30 µM in [10]; 20.6 µM on Aurora kinase B. Moreover, the half-maximal inhibitory concentration (IC50) in [11] is above 30 µM; in [12], 20 µM; in test [13], 9.33 µM; in test [14], above 30 µM.

For `O=c1c(O)c(-c2ccc(O)c(O)c2)oc2cc(O)cc(O)c12` [QUERCETIN], the IC50 is 5.39 µM in test [1]; 4.23 µM in test [3]; 1.2 µM against Focal adhesion kinase 1; 5.09 µM in [5]; 0.3 µM in test [6]; 5.73 µM in test [7]. The IC50 was 0.96 µM in [8]; above 10 µM in test [9]; 0.58 µM in [10]; 0.91 µM against Aurora kinase B; 5.8 µM in [11]; 0.12 µM in test [12]. The compound further returned an IC50 in test [13] of 3.32 µM.

In the case of `COC1OC(=O)c2c(O)c(O)c(O)c(C)c21` (racemic), the half-inhibitory concentration (IC50) in test [1] was above 30 µM; in test [2] it was above 30 µM; in [3], above 30 µM; against Focal adhesion kinase 1 it was 16.3 µM; in test [4], 26.4 µM; in [5], 29.8 µM. Further, the IC50 in [6] was 2.04 µM; in [7], 11.8 µM; in test [8], 6.39 µM; in test [9], above 30 µM; in test [10] it was 9.65 µM; on Aurora kinase B, 22.6 µM. Moreover, the 50% inhibitory concentration (IC50) was above 30 µM in test [11], 12.6 µM in test [12], 9.76 µM in test [13] and above 30 µM in [14].
